According to PubChem BioAssay (NCI):
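Interpolation was linear, between the two tested concentrations surrounding the appropriate level; five concentrations were tested over 48 hours in 96-well plates. At the GI50, growth is halved. TGI marks complete inhibition of growth.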

Tests used:
Assay in all cases: NCI-60 cell line screen, 48 h
DMS 273 small cell lung = system: DMS 273 small cell lung
DMS 114 small cell lung = system: DMS 114 small cell lung
KM20L2 colon = system: KM20L2 colon
XF 498 CNS = system: XF 498 CNS
LXFL 529 NSCLC = system: LXFL 529 NSCLC
NCI/ADR-RES ovarian = system: NCI/ADR-RES ovarian
BT-549 breast = system: BT-549 breast
T-47D breast = system: T-47D breast
PC-3 prostate = system: PC-3 prostate
SNB-78 CNS = system: SNB-78 CNS

SMILES	TGI (DMS 273 small cell lung) [µM]	TGI (DMS 114 small cell lung) [µM]	TGI (KM20L2 colon) [µM]	TGI (XF 498 CNS) [µM]	TGI (LXFL 529 NSCLC) [µM]	GI50 (NCI/ADR-RES ovarian) [µM]	TGI (NCI/ADR-RES ovarian) [µM]	GI50 (BT-549 breast) [µM]	TGI (BT-549 breast) [µM]	GI50 (T-47D breast) [µM]	TGI (T-47D breast) [µM]	GI50 (PC-3 prostate) [µM]	TGI (PC-3 prostate) [µM]	TGI (SNB-78 CNS) [µM]
CCOC(=O)C(C)(C)Oc1ccc2c(=O)cc(-c3ccc(Cl)cc3)oc2c1	> 100	> 100	> 100	> 100	> 100	–	–	–	–	–	–	–	–	–
CC(=O)Oc1cc(C)ccc1[C@]1(C)CC[C@H](C)/C1=C\Br	–	–	–	–	–	2.68	7.94	4.1	17.6	5.38	23.4	3.33	12.3	–
O=C1C=C(c2c(O)ccc3ccccc23)c2ccccc2C1=O	11.3	6.71	32.1	–	2.96	–	8.96	–	5.32	–	–	–	4.2	8.64
CN(C)CCNc1nc2ccccc2c2c1c1c(n2Cc2ccccc2)-c2ccccc2C1=O	–	–	–	–	–	5.77	23.1	16.7	32.9	19.4	50.6	–	–	–
O=C1c2cc(Br)ccc2-c2c1c1ccc([N+](=O)[O-])cc1c(=O)n2CCCCl	–	–	–	–	–	0.239	7.9	2.98	> 63.8	0.0144	18.8	0.184	> 100	–
CCCCC#COP(=O)(OCC)OCC	–	> 100	> 100	–	> 100	–	–	–	–	–	–	–	–	> 100
Cc1nn(C(=O)c2ccccc2O)c2c1C(c1ccccc1)SC(N)=N2 (stereo unspecified)	–	–	–	–	–	–	> 10	–	> 10	–	> 10	–	> 10	–
C=CCCCCCCCCCCCC1CCC(CC)N1 (stereo unspecified)	5.92	14.7	15.8	–	26	–	–	–	–	–	–	–	–	37.8
COc1ccc(/C=C/c2cc(OC)c(OC)c(OC)c2)cc1NC(=O)/C=C/c1ccc(F)cc1	–	–	–	–	–	1.19	6.38	4.49	> 100	5.51	> 100	1.98	> 100	–
CC1(C)C=CC[C@]2(C)[C@H]3CC[C@@H]4[C@H]5[C@H](C(=O)/C=C/c6cccnc6)CC[C@]5(CO)CC[C@@]4(C)[C@]3(C)CC[C@@H]12	–	–	–	–	–	–	–	–	–	–	–	0.505	1.91	–
COc1cc2nc(-c3ccc(C(F)(F)F)cc3)cc(OCCCN3CCOCC3)c2cc1OC	–	–	–	–	–	0.64	22.7	5	20.9	0.654	23.8	2.19	16.5	–
CC(=O)O/N=C/c1ncccc1CO	> 100	> 100	> 100	> 100	> 100	–	–	–	–	–	–	–	–	–
Nc1nc(-c2cccc([N+](=O)[O-])c2)c(Br)c(=O)[nH]1	–	–	–	–	–	–	> 100	–	> 63	–	> 100	–	> 100	–
CC1=CSC2=NC(c3ccc(Cl)c(Cl)c3)=CC(c3ccc(Cl)cc3)N12 (stereo unspecified)	–	–	–	–	–	> 100	> 100	> 100	> 100	> 100	> 100	> 100	> 100	–
Cc1c(CCCl)c(=O)n2c([nH]c3ccccc32)c1C#N	–	–	–	–	–	–	2.7	–	3.63	–	2.97	–	2.82	–
COc1cc(-c2cnn(C)c2)ccc1Nc1ncc2ccnc(N[C@@H](C)C(C)(C)C)c2n1	–	–	–	–	–	> 43.4	> 100	> 68.5	> 100	> 100	> 100	> 96.1	> 100	–
COc1cc([C@H](C)c2ccc3ccccc3c2)cc(OC)c1OC	–	–	–	–	–	0.145	> 100	0.848	18.4	0.626	> 100	0.346	> 100	–
Cc1cc(S(=O)(=O)Nc2nc(N)nc(N3N=CCC3C)n2)c(S)cc1Cl (stereo unspecified)	–	–	–	–	–	–	> 10	–	> 10	–	> 10	–	> 10	–
CCCCNc1nc(NC(C)(C)C)nc(NC(C)(C)C)n1	–	–	–	–	–	3.31	> 100	19.1	> 100	15.2	> 100	4.26	> 100	–
Cc1cc(/C=C2\SC(=Nc3ccccc3)N(C3CCCC3)C2=O)c(C)n1-c1ccc(Cl)cc1	–	–	–	–	–	> 100	> 100	> 100	> 100	> 100	> 100	75.5	> 100	–
O=c1ccn(C2OC(CO)C(O)C2O)c(=O)[nH]1 (stereo unspecified)	–	–	–	–	–	> 1000	> 1000	–	> 1000	> 1000	> 1000	> 1000	> 1000	–
O=C(Nc1ccc(Cl)cc1)Nc1ccc(Cl)c(Cl)c1	–	–	–	–	–	3.6	> 100	–	–	3.05	30.6	2.97	> 100	–
COc1ccc2c(c1)sc1nc(-c3ccccc3)c(-c3ccsc3)n12	–	–	–	–	–	2.53	> 100	6.56	> 100	6.27	> 100	4.02	> 100	–
COc1cc(/C=C/c2cc(C(F)(F)F)[nH]c(=O)n2)ccc1OCc1ccccc1F	–	–	–	–	–	14.7	> 100	5.04	20.6	9.98	63.1	9.06	29	–
O=c1oc2ccccc2c(O)c1/C=N\c1nc(-c2ccccc2)cs1	–	–	–	–	–	–	63.5	–	–	–	47.1	–	31.2	–
CN1CCN(Cc2ccc(NC(=O)c3cncc(C#Cc4cnc(N)c5ccc(F)cc45)c3)cc2C(F)(F)F)CC1	–	–	–	–	–	3.22	10.4	4.38	8.86	4.53	11.4	1.39	6.68	–
CCOC(=O)[C@@H](C)C[C@H](Cc1ccccc1)NC(=O)c1csc([C@@H](C[C@H](C(C)C)N(C)C(=O)[C@@H](NC(=O)[C@H]2C[C@H](O[Si](C)(C)C(C)(C)C)CCN2C)C(C)C)OC(C)=O)n1	–	–	–	–	–	1.29	5.03	0.285	2.53	0.297	> 8.33	0.22	> 8.33	–
